Laboratory results published in US12516062B2, “Agricultural or horticultural insecticide or animal ectoparasite or endoparasite control agent each comprising an imidazopyridazine compound having a substituted cyclopropane-oxadiazole group or a salt thereof as active ingredient, and method for using the insecticide or the control agent” (NIHON NOHYAKU CO., LTD., priority 2019, dated 2026).

What was measured:
Assay type in all cases: in vivo
Haemonchus contortus = assay: Larval motility assay on Haemonchus contortus; details: 96 h, L1 stage larvae, 4 days, relative to DMSO only, read-out: percent motility inhibition
Procedure: Larval Motility Assay on Haemonchus contortus
DMSO diluted solutions of various compounds of the present invention were added at the final concentration of 50 ppm to the wells of a 96-well plate containing a predetermined conditioned medium. Twenty L1 stage larvae of H. contortus were introduced into each well of the 96-well plate. The plate was allowed to stand for 4 days, and then larval motility was examined. The percent motility inhibition in the wells of each treatment was calculated relative to the wells of treatment with DMSO only.

Plutella xylostella = assay: whole plant or invertebrate; details: in Brassica rapa, 144 h, seedlings with laid eggs dipped about 30 seconds, 25° C., 6 days after dip treatment, read-out: insecticidal efficacy (corrected mortality rate), activity level
Laodelphax striatellus = assay: whole plant or invertebrate; details: 192 h, rice seedlings dipped 30 seconds, 3rd-instar larvae, 8 days after inoculation, read-out: insecticidal efficacy (corrected mortality rate), activity level
Dirofilaria immitis = assay: Larval motility assay on Dirofilaria immitis; details: 72 h, read-out: percent motility inhibition
Procedure: Larval Motility Assay on Dirofilaria immitis
Five hundred L1 stage larvae of D. immitis were diluted in a predetermined conditioned medium and introduced into each well of a 96-well plate. DMSO diluted solutions of various compounds of the present invention were added at the final concentration of 50 ppm to the wells of the 96-well plate. The plate was allowed to stand for 3 days, and then larval motility was examined. The percent motility inhibition in the wells of each treatment was calculated relative to the wells of treatment with DMSO only.

Rhipicephalus sanguineus = assay: Assay for transdermal parasiticidal activity against nymphs of Rhipicephalus sanguineus; details: 48 h, read-out: mortality rate
Source text: Assay for Transdermal Parasiticidal Activity Against Nymphs of Rhipicephalus sanguineus
DMSO diluted solutions of various compounds of the present invention were individually diluted to the final concentration of 100 ppm with an acetone/triton mixture and applied to the inside of vented sample bottles. After overnight drying, ten nymphs of R. sanguineus were introduced into each bottle, and the mortality rate was examined two days later. Aberrant adults were regarded as the dead.

SMILES	inhibition at 50 ppm (Haemonchus contortus) [%]	mortality at 500 ppm (Plutella xylostella) [%]	mortality at 500 ppm (Laodelphax striatellus) [%]	inhibition at 50 ppm (Dirofilaria immitis) [%]	mortality at 100 ppm (Rhipicephalus sanguineus) [%]
CCS(=O)(=O)c1cc(-c2noc(C3CC3C)n2)cnc1-c1nc2cc(C(F)(F)C(F)(F)F)nnc2n1C (stereo not drawn) [Compound 1-1]	≥ 50	100	100	≥ 50	
CCS(=O)(=O)c1cc(-c2noc(C3(c4ccccc4)CC3)n2)cnc1-c1nc2cc(C(F)(F)C(F)(F)F)nnc2n1C [Compound 1-3]	≥ 50	100	100	≥ 50	≥ 50
CCS(=O)(=O)c1cc(-c2noc(C3(C)CC3)n2)cnc1-c1nc2cc(C(F)(F)C(F)(F)F)nnc2n1C [Compound 1-4]	≥ 50	100	100	≥ 50	
CCS(=O)(=O)c1cc(-c2noc(C3(C(F)(F)F)CC3)n2)cnc1-c1nc2cc(C(F)(F)C(F)(F)F)nnc2n1C [Compound 1-2, 3-(5-(ethylsulfonyl)-6-(3-methyl-6-pentafluoroethyl-3[ ]-imidazo[4,5-c]pyridazin-2-yl)pyridin-3-yl)-5-(1-trifluoromethylcyclopropyl)-1,2,4-oxadiazole]	≥ 50	100	100	≥ 50	≥ 50
